In US20260265244A1, “HETEROCYCLIC COMPOUNDS AS STING ANTAGONISTS” (Boehringer Ingelheim International GmbH, priority 2022, published 2026):

The molecules below were run against T1, cGAMP binding domain of wild-type (GRR) human STING, residues 155-341 (Homo sapiens, UniProt Q86WV6, H232R) (assay: Increase of stability of STING protein against thermal denaturation, Differential Scanning Fluorimetry (DSF)).
T1 construct: His-TEV-hSTING (WT); TEV protease cleavage site (N); made in house; host or cells: E. coli BL21 DE3
T1 sequence (Q86WV6 with tags, fused parts or gaps H232R): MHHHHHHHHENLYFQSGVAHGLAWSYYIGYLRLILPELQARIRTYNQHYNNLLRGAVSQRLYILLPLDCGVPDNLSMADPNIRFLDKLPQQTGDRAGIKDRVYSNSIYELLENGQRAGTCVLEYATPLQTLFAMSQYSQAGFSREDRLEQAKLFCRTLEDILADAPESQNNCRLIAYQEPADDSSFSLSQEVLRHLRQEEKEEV
Protocol: Dye fluorescence is quenched in aqueous environment and increases upon association of the dye with the hydrophobic parts of the unfolding protein. […] The inflection point of the curve represents the “melting” temperature of the protein (Tm) which is calculated numerically using the Boltzmann equation.
Method: The thermal stability of the STING protein was measured using a specific expression construct of the cGAMP binding domain of wild-type (GRR) human STING comprising residues 155-341 and a N-terminal 8×His-tag (SEQ ID NO: 3) in assay buffer containing 20 mM Tris, 150 mM NaCl at pH7.5.
The assay uses Hard-Shell® PCR Plates 384-Well CLR/WHT (Catalog #HSP3805, BIO-RAD), Microseal® ‘B’ Adhesive Seals for PCR Plates (Catalog #MSB-1001, BIO-RAD) and was run on a CFX384 Real-Time System (Bio-Rad).
A DMSO stock solution of SYPRO orange (SIGMA S5692-500UL) was prepared.
Compound stock solutions (10 mM in DMSO) were diluted 1:2 in DMSO to an intermediate compound concentration of 5 mM and then further diluted 1:40 in assay buffer resulting in a compound concentration of 125 μM and 2.5% DMSO.
Fluorescent dye stock solution (5000×SYPRO Orange) was then mixed with target protein and buffer to a concentration of 15 uM Protein and 25×SYPRO Orange. 2 ul of this protein-dye-mixture was added to 8 ul compound solution. Final volume was 10 uL. 3-6 well positions were used as negative control (protein with 2% DMSO). The plates were prepared for duplicate measurement and centrifuged for 2 min at 1000 g. In the measurement, 160 cycles of 0.5° C. were used (temperature ramp 15 s/cycle, 15° C. to 95° C.).
Final Assay concentrations for compound characterization were as follows: 100 uM compound, 3 uM target protein, 5×SYPRO Orange, 2% DMSO in 10 ul. All dispensing steps were performed using a HamiltonStar pipetting robot (Hamilton).
Dissociation curves were processed in Bio-Rad CFX Manager. Peak type was set to “negative”. Compound codes for screen were assigned in the plate layout.
Two replicates of TM measurements were averaged, and the standard deviation was calculated. In cases of SD>1.5° C. the measurement was repeated.
The melting point (Tm) obtained for STING protein alone was subtracted from T obtained for protein incubated with ligand to generate ΔTm values.
Protein production and purification: The protein used for the biophysical experiments was a recombinant human STING protein comprising its cytosolic ectodomain. A codon optimized DNA sequence (for expression in Escherichia coli) encoding amino acid residues 155 to 341 (Swiss Prot Q86WV6) of human STING (WT) was synthesized by GeneArt (Regensburg, Germany) and inserted into a pET17b E. coli expression vector. The protein construct encodes an N-terminal 8×His-tag (SEQ ID NO: 3) followed by tobacco etch virus protease (TEV) cleavage site and the above STING gene sequence. The resulting protein sequence for the used STING variant is listed below:
For expression of recombinant human STING above construct was transformed into E. coli BL21 DE3 strain and grown in shake flasks in LB-medium at 37° C. Expression was induced by addition of isopropyl β-D-1-thiogalactopyranoside to a final concentration of 1 mM and cultures shaken overnight. Cell pellets were centrifuged and stored at −70° C. until further use. Protein was purified by cell thawing in lysis buffer (20 mM TRIS-HCl, pH 8, 300 mM NaCl, 2 mM mercaptoethanol, 20 mM imidazole, Complete Protease Inhibitor (Roche) and DNase (Roche)), followed by metal affinity purification using Ni-NTA resins and elution buffer consisting of 20 mM TRIS-HCl, pH 8, 300 mM NaCl, 2 mM mercaptoethanol, 300 mM imidazole and size exclusion chromatography in running buffer (20 mM TRIS-HCl, pH 8, 100 mM NaCl, 2 mM DTT). The peak fraction was collected and concentrated to 2.5 mg/mL.
`Cc1nc2nn(CCN3CCOCC3)cc2cc1-n1nc(-c2cccc3nn(C[C@H](O)c4ccccc4)cc23)c(C(C)C)c1C` [Example 1, (1R)-2-[4-(5-methyl-1-{6-methyl-2-[2-(morpholin-4-yl)ethyl]-2H-pyrazolo[3,4-b]pyridin-5-yl}-4-(propan-2-yl)-1H-pyrazol-3-yl)-2H-indazol-2-yl]-1-phenylethan-1-ol] gave a DSF of 26 K.
With `Cc1nc2nn(CCCC#N)cc2cc1-n1nc(-c2cccc3nn(C[C@H](O)c4ccccc4)cc23)c(C(C)C)c1C` [Example 2, 4-[5-(3-{2-[(2R)-2-hydroxy-2-phenylethyl]-2H-indazol-4-yl}-5-methyl-4-(propan-2-yl)-1H-pyrazol-1-yl)-6-methyl-2H-pyrazolo[3,4-b]pyridin-2-yl]butanenitrile] the DSF was 28 K.
Molecule `Cc1nc2nn(Cc3cccnc3)cc2cc1-n1nc(-c2cccc3nn(C[C@H](O)c4ccccc4)cc23)c(C(C)C)c1C` [Example 6, (1R)-2-[4-(5-methyl-1-{6-methyl-2-[(pyridin-3-yl)methyl]-2H-pyrazolo[3,4-b]pyridin-5-yl}-4-(propan-2-yl)-1H-pyrazol-3-yl)-2H-indazol-2-yl]-1-phenylethan-1-ol] has a DSF of 29 K.
For `Cc1nc2nn(CCCN3CCN(C)CC3)cc2cc1-n1nc(-c2cccc3nn(C[C@H](O)c4ccccc4)cc23)c(C(C)C)c1C` [Example 7, (1R)-2-[4-(5-methyl-1-{6-methyl-2-[3-(4-methylpiperazin-1-yl)propyl]-2H-pyrazolo[3,4-b]pyridin-5-yl}-4-(propan-2-yl)-1H-pyrazol-3-yl)-2H-indazol-2-yl]-1-phenylethan-1-ol], the DSF was 25 K.
Work on `Cc1nc2nn(C)cc2cc1-n1nc(-c2cccc3nn(C[C@H](OCCO)c4ccccc4)cc23)c(C(C)C)c1C` [Example 8, 2-[(1R)-2-[4-(1-{2,6-dimethyl-2H-pyrazolo[3,4-b]pyridin-5-yl}-5-methyl-4-(propan-2-yl)-1H-pyrazol-3-yl)-2H-indazol-2-yl]-1-phenylethoxy]ethan-1-ol] yielded a DSF of 24 K.
`COc1ccc(Cn2cc3cc(-c4nc(-c5cccc6nn(C[C@H](O)c7ccccc7)cc56)c(C5CC5)n4C)c(C4CC4)nc3n2)cc1` [Example 9, (1R)-2-[4-(5-cyclopropyl-2-{6-cyclopropyl-2-[(4-methoxyphenyl)methyl]-2H-pyrazolo[3,4-b]pyridin-5-yl}-1-methyl-1H-imidazol-4-yl)-2H-indazol-2-yl]-1-phenylethan-1-ol] gave a DSF of 33 K.
In the case of `Cn1c(-c2cc3cn(CCN4CCOCC4)nc3nc2C2CC2)nc(-c2cccc3nn(C[C@H](O)c4ccccc4)cc23)c1C1CC1` [Example 10, (1R)-2-[4-(5-cyclopropyl-2-{6-cyclopropyl-2-[2-(morpholin-4-yl)ethyl]-2H-pyrazolo[3,4-b]pyridin-5-yl}-1-methyl-1H-imidazol-4-yl)-2H-indazol-2-yl]-1-phenylethan-1-ol], the DSF is reported as 30 K.
For `Cc1nc2nn(CCCCO)cc2cc1-n1nc(-c2cccc3nn(C[C@H](O)c4ccccc4)cc23)c(C(C)C)c1C` [Example 12, 4-[5-(3-{2-[(2R)-2-hydroxy-2-phenylethyl]-2H-indazol-4-yl}-5-methyl-4-(propan-2-yl)-1H-pyrazol-1-yl)-6-methyl-2H-pyrazolo[3,4-b]pyridin-2-yl]butan-1-ol], the DSF was 29 K.
`Cc1c(C(C)C)c(-c2cccc3nn(C[C@H](O)c4ccccc4)cc23)nn1-c1cc2cn(C)nc2nc1C1CCCO1` (stereo partly drawn) [Example 13, (1R)-2-(4-{5-methyl-1-[2-methyl-6-(oxolan-2-yl)-2H-pyrazolo[3,4-b]pyridin-5-yl]-4-(propan-2-yl)-1H-pyrazol-3-yl}-2H-indazol-2-yl)-1-phenylethan-1-ol] showed a DSF of 30 K.
`Cc1nc2nn(C3CCOC3)cc2cc1-n1nc(-c2cccc3nn(C[C@H](O)c4ccccc4)cc23)c(C(C)C)c1C` (stereo partly drawn) [Example 14, (1R)-2-(4-{5-methyl-1-[6-methyl-2-(oxolan-3-yl)-2H-pyrazolo[3,4-b]pyridin-5-yl]-4-(propan-2-yl)-1H-pyrazol-3-yl}-2H-indazol-2-yl)-1-phenylethan-1-ol] gave a DSF of 28 K.
`Cc1c(C(C)C)c(-c2cccc3nn(C[C@H](O)c4ccc(OCCN5CCOCC5)cc4)cc23)nn1-c1cc2cn(C)nc2nc1C1CC1` [Example 15, (1R)-2-[4-(1-{6-cyclopropyl-2-methyl-2H-pyrazolo[3,4-b]pyridin-5-yl}-5-methyl-4-(propan-2-yl)-1H-pyrazol-3-yl)-2H-indazol-2-yl]-1-{4-[2-(morpholin-4-yl)ethoxy]phenyl}ethan-1-ol] was tested, and the DSF was 30 K.
`COCCn1cc2cc(-n3nc(-c4cccc5nn(C[C@H](O)c6ccccc6)cc45)c(C(C)C)c3C)c(C)nc2n1` [Example 16, (1R)-2-(4-{1-[2-(2-methoxyethyl)-6-methyl-2H-pyrazolo[3,4-b]pyridin-5-yl]-5-methyl-4-(propan-2-yl)-1H-pyrazol-3-yl}-2H-indazol-2-yl)-1-phenylethan-1-ol] gave a DSF of 28 K.
`COCc1nc2nn(C)cc2cc1-n1nc(-c2cccc3nn(C[C@H](O)c4ccccc4)cc23)c(C(C)C)c1C` [Example 17, (1R)-2-(4-{1-[6-(methoxymethyl)-2-methyl-2H-pyrazolo[3,4-b]pyridin-5-yl]-5-methyl-4-(propan-2-yl)-1H-pyrazol-3-yl}-2H-indazol-2-yl)-1-phenylethan-1-ol] was tested, and the DSF was 27 K.
Molecule `Cc1nc2nn(C(C)C)cc2cc1-n1nc(-c2cccc3nn(C[C@H](O)c4ccccc4)cc23)c(C(C)C)c1C` [Example 18, (1R)-2-(4-{5-methyl-1-[6-methyl-2-(propan-2-yl)-2H-pyrazolo[3,4-b]pyridin-5-yl]-4-(propan-2-yl)-1H-pyrazol-3-yl}-2H-indazol-2-yl)-1-phenylethan-1-ol] has a DSF of 28 K.
`Cc1c(C(C)C)c(-c2cccc3nn(C[C@H](O)c4ccccc4)cc23)nn1-c1cc2cn(C)nc2nc1C(C)O` (stereo partly drawn) [Example 19, (1R)-2-(4-{1-[6-(1-hydroxyethyl)-2-methyl-2H-pyrazolo[3,4-b]pyridin-5-yl]-5-methyl-4-(propan-2-yl)-1H-pyrazol-3-yl}-2H-indazol-2-yl)-1-phenylethan-1-ol] was tested, and the DSF was 29 K.
`CSc1nc2nn(C)cc2cc1-n1nc(-c2cccc3nn(C[C@H](O)c4ccccc4)cc23)c(C(C)C)c1C` [Example 20, (1R)-2-(4-{5-methyl-1-[2-methyl-6-(methylsulfanyl)-2H-pyrazolo[3,4-b]pyridin-5-yl]-4-(propan-2-yl)-1H-pyrazol-3-yl}-2H-indazol-2-yl)-1-phenylethan-1-ol] gave a DSF of 27 K.
Work on `Cc1nc2nn(CCCN3CCCC3=O)cc2cc1-n1nc(-c2cccc3nn(C[C@H](O)c4ccccc4)cc23)c(C(C)C)c1C` [Example 21, 1-{3-[5-(3-{2-[(2R)-2-hydroxy-2-phenylethyl]-2H-indazol-4-yl}-5-methyl-4-(propan-2-yl)-1H-pyrazol-1-yl)-6-methyl-2H-pyrazolo[3,4-b]pyridin-2-yl]propyl}pyrrolidin-2-one] yielded a DSF of 30 K.
Work on `CC(C)c1nc2nn(C)cc2cc1-c1nc(-c2cccc3nn(C[S@@+]([O-])c4ccccc4)cc23)c(C2CC2)n1C` [Example 22, 2-{[(S)-benzenesulfinyl]methyl}-4-{5-cyclopropyl-1-methyl-2-[2-methyl-6-(propan-2-yl)-2H-pyrazolo[3,4-b]pyridin-5-yl]-1H-imidazol-4-yl}-2H-indazole] yielded a DSF of 33 K.
